Test results from patent US20090124663A1, “Novel n-phenyl-piperidine derivatives and their use as monoamine neurotransmitter re-uptake inhibitors” (NeuroSearch A/S, priority 2005, published 2009).
pIC50: −log10 of the molar value. Counter-ions that a name gives are not always drawn.

Legend:
[1] = biological target: T1, reuptake of dopamine (DA) in synaptosomes (Rattus norvegicus, UniProt P23977); test: Inhibition of dopamine reuptake in synaptosomes; assay type: biochemical
T1 construct: in synaptosomes as described in WO 97/16451; from tissue
T1 sequence (P23977 whole entry): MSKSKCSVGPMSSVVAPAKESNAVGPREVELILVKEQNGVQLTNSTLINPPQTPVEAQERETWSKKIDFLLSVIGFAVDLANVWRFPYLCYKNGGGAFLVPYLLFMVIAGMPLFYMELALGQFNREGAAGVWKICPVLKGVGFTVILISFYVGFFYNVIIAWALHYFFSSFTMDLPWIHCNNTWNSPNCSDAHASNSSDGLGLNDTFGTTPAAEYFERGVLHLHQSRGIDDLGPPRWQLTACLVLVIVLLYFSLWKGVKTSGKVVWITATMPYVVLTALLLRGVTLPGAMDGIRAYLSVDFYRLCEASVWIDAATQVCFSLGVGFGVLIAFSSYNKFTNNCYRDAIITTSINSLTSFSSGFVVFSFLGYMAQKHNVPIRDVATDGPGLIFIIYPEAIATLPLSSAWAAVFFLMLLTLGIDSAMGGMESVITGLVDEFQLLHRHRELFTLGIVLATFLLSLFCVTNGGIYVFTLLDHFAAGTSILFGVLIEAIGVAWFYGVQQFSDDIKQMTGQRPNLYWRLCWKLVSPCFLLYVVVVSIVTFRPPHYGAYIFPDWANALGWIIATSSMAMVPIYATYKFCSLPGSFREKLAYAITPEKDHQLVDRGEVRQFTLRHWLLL
Protocol: (§1) Compounds were tested for their ability to inhibit the reuptake of the monoamine neurotransmitters dopamine (DA) noradrenaline (NA) and serotonine (5-HT) in synaptosomes as described in WO 97/16451.
(§2) The test values are given as IC50 (the concentration (μM) of the test substance which inhibits the specific binding of ^3H-DA, ^3H-NA, or ^3H-5-HT by 50%).

[2] = biological target: T2, reuptake of noradrenaline (NA) in synaptosomes (Rattus norvegicus, UniProt Q9WTR4); test: Inhibition of noradrenaline reuptake in synaptosomes; assay type: biochemical
T2 construct: in synaptosomes as described in WO 97/16451; from tissue
T2 sequence (Q9WTR4 1-597): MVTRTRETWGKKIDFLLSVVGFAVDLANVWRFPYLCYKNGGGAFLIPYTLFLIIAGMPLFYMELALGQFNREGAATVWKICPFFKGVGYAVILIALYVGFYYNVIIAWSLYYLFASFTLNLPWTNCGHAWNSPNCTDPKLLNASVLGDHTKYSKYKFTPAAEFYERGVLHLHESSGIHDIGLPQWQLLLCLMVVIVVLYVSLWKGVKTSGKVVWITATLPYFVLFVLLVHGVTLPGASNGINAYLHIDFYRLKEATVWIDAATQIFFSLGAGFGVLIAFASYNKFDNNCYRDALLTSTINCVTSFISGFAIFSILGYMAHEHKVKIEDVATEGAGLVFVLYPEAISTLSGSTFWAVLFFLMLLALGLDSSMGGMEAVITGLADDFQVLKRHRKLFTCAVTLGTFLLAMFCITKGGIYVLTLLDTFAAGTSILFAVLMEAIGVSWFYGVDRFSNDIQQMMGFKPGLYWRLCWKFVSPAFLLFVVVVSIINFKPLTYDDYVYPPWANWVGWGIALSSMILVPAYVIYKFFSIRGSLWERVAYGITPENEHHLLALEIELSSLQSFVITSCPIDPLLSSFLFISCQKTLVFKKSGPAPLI
Protocol: as §1, §2

[3] = biological target: T3, reuptake of serotonine (5-HT) in synaptosomes (Rattus norvegicus, UniProt P31652); test: Inhibition of serotonin reuptake in synaptosomes; assay type: biochemical
T3 construct: in synaptosomes as described in WO 97/16451; from tissue
T3 sequence (P31652 whole entry): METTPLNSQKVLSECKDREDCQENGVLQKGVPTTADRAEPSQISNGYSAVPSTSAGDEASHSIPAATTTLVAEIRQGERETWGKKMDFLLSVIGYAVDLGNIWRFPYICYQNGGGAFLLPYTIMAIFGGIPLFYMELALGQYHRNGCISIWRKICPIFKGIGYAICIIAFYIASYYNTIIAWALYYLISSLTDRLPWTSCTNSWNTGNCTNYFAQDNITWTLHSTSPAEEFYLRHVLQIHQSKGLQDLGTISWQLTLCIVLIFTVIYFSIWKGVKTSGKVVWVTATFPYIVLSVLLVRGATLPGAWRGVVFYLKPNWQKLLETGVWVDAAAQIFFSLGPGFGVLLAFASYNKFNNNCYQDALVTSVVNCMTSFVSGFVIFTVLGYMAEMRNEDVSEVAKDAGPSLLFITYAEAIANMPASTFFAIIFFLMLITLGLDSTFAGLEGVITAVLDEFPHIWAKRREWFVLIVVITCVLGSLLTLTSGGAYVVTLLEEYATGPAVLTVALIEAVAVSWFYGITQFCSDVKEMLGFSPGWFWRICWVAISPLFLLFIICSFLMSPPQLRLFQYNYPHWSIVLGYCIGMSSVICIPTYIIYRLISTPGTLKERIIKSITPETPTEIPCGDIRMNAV
Protocol: as §1, §2

In the case of `NC1CCN(c2ccc(Cl)c(Cl)c2)CC1` (as salt: hydrochloric acid salt) [1st compound of method A, 1-(3,4-Dichloro-phenyl)-piperidin-4-ylamine], the melting point was > 250 °C (dec.).
Work on `CNC1CCN(c2ccc(Cl)c(Cl)c2)CC1` (as salt: hydrochloric acid salt) [1st compound of method B, [1-(3,4-Dichloro-phenyl)-piperidin-4-yl]-methyl-amine] yielded a melting point of 240 to 244 °C.
`NC1CCN(c2ccc(Cl)c(Cl)c2)CC1` [1st compound of method A, 1-(3,4-Dichloro-phenyl)-piperidin-4-ylamine] showed a pIC50 [1] of 6.40, a pIC50 [2] of 6.82 and a pIC50 [3] of 7.57.
For `CNC1CCN(c2ccc(Cl)c(Cl)c2)CC1` [1st compound of method B, [1-(3,4-Dichloro-phenyl)-piperidin-4-yl]-methyl-amine], the pIC50 [1] was 6.42, the pIC50 [2] was 6.70 and the pIC50 [3] was 7.57.
